According to PubChem BioAssay (NCI):
“And” between values parts separate entries of the source, which are not always exact repeats. Identical values can stand only once.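 Following 48 hours of exposure in 96-well plates, responses at five concentrations were used to interpolate endpoints linearly. GI50: concentration for 50% inhibition of growth. TGI: concentration producing complete growth inhibition.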

Key:
Test in all cases: NCI anticancer screen, dose series, 48 h
NCI-H522 lung = test system: NCI-H522 lung
SN12C renal = test system: SN12C renal
HOP-92 NSCLC = test system: HOP-92 NSCLC
MOLT-4 leukemia = test system: MOLT-4 leukemia
LOX IMVI melanoma = test system: LOX IMVI melanoma
HL-60(TB) leukemia = test system: HL-60(TB) leukemia
OVCAR-8 ovarian = test system: OVCAR-8 ovarian
NCI-H226 lung = test system: NCI-H226 lung
HCC-2998 colon = test system: HCC-2998 colon
786-0 renal = test system: 786-0 renal

Structure (SMILES) | GI50 (NCI-H522 lung) [µM] | TGI (NCI-H522 lung) [µM] | GI50 (SN12C renal) [µM] | TGI (SN12C renal) | GI50 (HOP-92 NSCLC) [µM] | TGI (HOP-92 NSCLC) [µM] | GI50 (MOLT-4 leukemia) [µM] | TGI (MOLT-4 leukemia) [µM] | GI50 (LOX IMVI melanoma) [µM] | TGI (LOX IMVI melanoma) [µM] | GI50 (HL-60(TB) leukemia) | TGI (HL-60(TB) leukemia) [µM] | GI50 (OVCAR-8 ovarian) [µM] | TGI (OVCAR-8 ovarian) [µM] | GI50 (NCI-H226 lung) | TGI (NCI-H226 lung) | GI50 (HCC-2998 colon) [µM] | TGI (HCC-2998 colon) [µM] | GI50 (786-0 renal) | TGI (786-0 renal)
C=C1C(=O)O[C@H]2[C@H]1CCC(/C=N/c1ncc(Br)cc1N)=C\CC[C@@]1(C)O[C@@H]21 | 0.781 | 2.6 | 1.78 | 5.41 µM | 1.31 | 3.74 | 2.36 | 9.33 | 1.71 | 3.46 | 0.494 µM | 3.29 | 2.98 | 10.9 | 2.88 µM | 11.7 µM | 3.56 | 12.9 | 1.72 µM | 3.52 µM
COc1cc(Cl)cc(-c2nn(-c3cccc(NC(=O)Nc4cc(C(F)(F)F)cc(C(F)(F)F)c4)c3)cc2-c2ccncc2)c1 | 0.302 | 1.32 | 0.427 | 3.05 µM | 0.228 | 0.783 | 0.33 | 1.92 | 0.513 | 2.29 | 0.32 µM | 2.49 | 0.39 | 2.46 | 0.965 µM | 7.67 µM | 0.963 | 5.42 | 0.821 µM | 2.64 µM
COc1ccc(NC(=O)COCCOCCNC[C@@H]2C(=O)O[C@H]3[C@H]2CC/C(COC(=O)OC/C2=C/CC[C@@]4(C)O[C@H]4[C@H]4OC(=O)[C@@H](CN(C)C)[C@@H]4CC2)=C\CC[C@@]2(C)O[C@@H]32)c(O)c1C(N)=O | 0.888 | 1.88 | 7.74 | 17.5 µM | 1.71 | 6.93 | 1.63 | 6 | 5.31 | 11.4 | 0.77 µM | 1.91 | 3.56 | 12 | 8.33 µM | 16.2 µM | 10.2 | 19.1 | 6.17 µM | 13.7 µM
Cc1cc(NCc2cc(Nc3ccnc4cc(Cl)ccc34)ccc2F)nc(N2CCN(C)CC2)n1 | 2.22 | 4.79 | 2.32 | 8.31 µM | 1.35 | 3.52 | 1.39 | 8.17 | 1.26 | 2.65 | 1.68 µM | 3.67 | 3.14 | 12.9 | 2.22 µM | 5.5 µM | 2.09 | 4.35 | 1.44 µM | 2.88 µM
CCN(CC)CCn1c2ccccc2c(=O)c2c(O)ccc(O)c21 |  | 35.9 |  | 45.6 µM |  | 39.9 |  | 69.3 |  | 36.3 |  | 46.8 |  | 48.2 |  | > 56.2 µM |  | > 57.7 |  | 53.8 µM
C=C1C(=O)O[C@H]2[C@H](OC(C)=O)[C@@H](C)CCC/C(C)=C/CC[C@@]3(C)O[C@@H]3C[C@@H]12 |  | 3.9 |  | 4.05 µM |  | 5.54 |  | 10.1 |  | 3.9 |  | 2.38 |  | 2.63 |  | 3.32 µM |  | 11.6 |  | 3.56 µM
Cc1ccc2c(c1)C(C)Cc1c(Cl)ncnc1N2C (centres undefined) | 2.67 | 8.03 | 3.64 | 13.7 µM | 2.92 | 8.5 | 3.37 | > 100 | 1.8 | 3.78 | 3.07 µM | 71.8 | 3.77 | 23.8 | 2.03 µM | 5.34 µM | 3.54 | 18.3 | 3.25 µM | 17.8 µM
COc1ccc(-n2cc(-c3cc(OC)c(OC)c(OC)c3)nc2SCc2ccccc2)cc1OC | 41.8 | > 100 | > 100 | > 100 µM | 6.45 | > 29.5 | 24.6 | > 100 | 59.3 | > 100 | 48.2 µM | > 100 | > 83.6 | > 100 | > 78.7 µM | > 100 µM | > 100 | > 100 | > 100 µM | > 100 µM
Nc1c([N+](=O)[O-])cc2c3c(cccc13)CC2 |  | > 100 |  | > 100 µM |  | > 100 |  | > 100 |  | > 100 |  | > 100 |  | > 100 |  | > 100 µM |  | > 100 |  | > 100 µM
CCCCCCCCCCCCOC1C(C(COC2OC(C3COC(C)(C)O3)C3OC(C)(C)OC23)NC(=O)NS(=O)(=O)c2ccccc2)OC2OC(C)(C)OC21 (centres undefined) | 6.56 | 32.8 | 3.95 | 15.2 µM | 2.39 | 8.52 | 0.0149 | 0.12 | 5.22 | 19.7 | 0.406 µM | 2.69 | 3.35 | 23.9 | 6 µM | 45.8 µM | 3.24 | 12.8 | 3.51 µM | 11.6 µM
O=C1C=CC[C@H](/C=C/c2ccccc2)O1 | 2.72 | > 25.4 | 3.55 | 17.9 µM | 1.19 | 18.3 |  | > 100 | 1.7 | 7.93 |  | > 34 | 6.03 | > 100 | 0.787 µM | 4.31 µM | 0.642 | 3.42 | 6.28 µM | 24.3 µM
COc1ccc(/C=C(\C#N)n2nnc3ccccc32)cc1 | 0.0336 | > 34.1 | 0.832 | 26.6 µM | 0.272 | 3.47 | 0.542 | > 44.9 | 0.548 | 6.72 | 0.126 µM |  | 0.416 | > 100 | 1.11 µM | 21.2 µM | 0.458 | 7.11 | 0.63 µM | 7.22 µM
CC[C@@]1(OC(=O)CN)C(=O)OCc2c1cc1n(c2=O)Cc2cc3c(N)cccc3nc2-1 | < 0.01 | 1.31 | < 0.01 | 1.1 µM | 0.0371 | > 100 | < 0.01 | 27.7 | < 0.01 | 0.0486 | < 0.01 µM |  | < 0.01 | 0.153 | 0.0216 µM | 0.498 µM | 0.084 | 0.782 | < 0.01 µM | 0.203 µM
S=c1ssc(Oc2ccccc2)c1Cl | 23.2 | 42.5 | 11.7 | 28.2 µM | 14.8 | 36.2 | 0.73 | > 100 | 5.61 | 22.7 | 3.21 µM | > 100 | 29.5 | 62.4 | 27 µM | 73.8 µM | 3.7 | 14.7 | 6.63 µM | 20.7 µM
CN1CC[C@]2(C)c3cc(O)ccc3CC3CCCC1C32C (some centres undefined) |  | > 100 |  | > 100 µM |  | > 100 |  | > 100 |  | > 100 |  | > 100 |  | > 100 |  | > 100 µM |  | > 100 |  | > 100 µM
Cc1cc(=O)[nH]c2cc3c(c4c(n3Cc3ccc(Cl)cc3Cl)CC(C)(C)CC4=O)c(O)c12 | > 100 | > 100 | > 100 | > 100 µM | 54.2 | > 100 | > 100 | > 100 | > 100 | > 100 | > 100 µM | > 100 | > 100 | > 100 | > 100 µM | > 100 µM | > 100 | > 100 | 0.0145 µM | 0.134 µM
Cc1ccc(NC(=O)C(=O)CC(=O)c2c(C)n([O-])c3ccccc3[n+]2=O)cc1 |  | 46.1 |  | > 100 µM |  | > 100 |  | 52.8 |  | 45.4 |  | 48.6 |  | 55.8 |  | > 100 µM |  | > 100 |  | > 100 µM
COc1ccc(/C(=N\O)c2cc(C)c(OC)c(C)c2)cc1O | < 0.01 | 0.0101 | 0.0484 | > 100 µM | 0.41 | > 100 | 0.052 | > 100 | 0.0189 | > 100 | 0.011 µM | 0.0607 | 0.0352 | 71.6 | 11.2 µM | > 100 µM | 0.0279 | > 100 | 0.0407 µM | > 100 µM
CC(C)(CN1CCCCC1)C(=O)/C=C/c1ccc(Cl)cc1 |  | 9.9 |  | 7.24 µM |  | 4.64 |  | 5.11 |  | 12.5 |  | 4.8 |  | 5.51 |  | 14.7 µM |  | 26.3 |  | 9.68 µM
Oc1[nH]c2c(Br)cccc2c1C1=Nc2ccccc2/C1=N/OCCN1CCCC1 | 0.847 | 3.4 | 0.74 | 4.99 µM and 8.59 µM | 1.04 | 3.12 | 0.354 | 3.18 | 0.626 | 2.45 | 1.04 µM and 0.998 µM |  | 0.792 |  | 0.948 µM and 0.708 µM | 3.05 µM and 29.1 µM | 1 | 6.18 | 0.648 µM and 0.942 µM | 2.58 µM and 4.31 µM
Oc1ccccc1C=Nc1nc(SCc2ccccc2)nc2[nH]ncc12 | 50.9 | > 100 | > 100 | > 100 µM | 12.4 | 71.1 | 24.8 | > 100 | 56.3 | > 100 | 26.1 µM | 95.7 | 46.8 | > 100 | 54.3 µM | > 100 µM | 47.9 | > 100 | 89.4 µM | > 100 µM
N#CC1=C(N)Oc2c(sc3c(Br)cccc23)C1c1ccc(Br)cc1 (centres undefined) | 0.088 | 0.534 | 2.33 | 13.4 µM | 1.43 | 5.56 | 0.546 | 8.11 | 0.747 | 3.95 | 0.28 µM | 0.788 | 0.588 | 3.09 | 4.28 µM | 20.2 µM | 1.77 | 7.33 | 0.776 µM | 2.96 µM
